From the supplement of paper PMC4862054
“And” between values parts separate entries of the source, which are not always exact repeats. Identical values can stand only once.

Columns and labels:
Experiment in all cases: normalised viability (% of control), CellTiter-Blue; higher = more viable cells (about 100 = DMSO control)
Conditions in all cases: incubation time: 72 h
DU-4475 = test system: DU-4475
Protocol: (§1)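 DSRT, CellTiter-Blue viability, 72 h incubation. Signal is normalised to DMSO and benzethonium chloride controls. Value is the normalised response at dose 6.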

CAL-51 = test system: CAL-51
Protocol: as §1

MDA-MB-453 = test system: MDA-MB-453
Protocol: as §1

HDQ-P1 = test system: HDQ-P1
Protocol: as §1

CAL-85-1 = test system: CAL-85-1
Protocol: as §1

CAL-148 = test system: CAL-148
Protocol: as §1

| SMILES | normalised viability (DU-4475) | normalised viability (CAL-51) | normalised viability (MDA-MB-453) | normalised viability (HDQ-P1) | normalised viability (CAL-85-1) | normalised viability (CAL-148) |
| --- | --- | --- | --- | --- | --- | --- |
| CN(C)CCOc1ccc(/C(=C(/CCCl)c2ccccc2)c2ccccc2)cc1 [Toremifene] (300 nM) | 99.7% | 104% | 101% | 79.5% | 101% | 102% |
| c1ccc2c(CCNc3ccc(Nc4ccncc4)cc3)c[nH]c2c1 [Serdemetan] (300 nM) | 87.6% | 108% | 109% | 57.9% | 87.7% | 87.6% |
| CO[C@H]1C[C@@H]2CC[C@@H](C)[C@@](O)(O2)C(=O)C(=O)N2CCCC[C@H]2C(=O)O[C@H]([C@H](C)C[C@@H]2CC[C@@H](OP(C)(C)=O)[C@H](OC)C2)CC(=O)[C@H](C)/C=C(\C)[C@@H](O)[C@@H](OC)C(=O)[C@H](C)C[C@H](C)/C=C/C=C/C=C/1C [Ridaforolimus] (30 nM) | 54% | 37.9% | 27.9% | 72.4% | 53.8% | 40.8% |
| Cc1ccc(NC(=O)c2ccc(CN3CCN(C)CC3)cc2)cc1Nc1nc(-c2cccnc2)cs1 [Masitinib] (300 nM) | 98.7% | 98.2% | 88.5% | 68.5% | 90.4% | 84.7% |
| COCC1(CO)C(=O)C2CCN1CC2 (centres undefined) [Prima-1 Met] (300 nM) | 116% | 91.2% | 87.1% | 53.8% | 83.3% | 94.5% |
| Nc1cc(C(F)(F)F)c(-c2cc(N3CCOCC3)nc(N3CCOCC3)n2)cn1 [BKM-120] (300 nM) | 102% | 78.4% | 71.2% | 71.9% | 81.2% | 92.5% |
| O=P1(N(CCCl)CCCl)NCCCO1 (centres undefined) [Cyclophosphamide] (1200 nM) | 96.2% | 106% | 112% | 81.5% | 108% | 107% |
| O=C(Nc1ccncc1)C(=O)c1cn(Cc2ccc(Cl)cc2)c2ccccc12 [Indibulin] (300 nM) | 115% | 71.3% | 41.4% | 30.7% | 55.8% | 95.7% |
| CC(C)C[C@@H](C(=O)N[C@H](C(=O)OC1CCCC1)c1ccccc1)[C@H](O)C(=O)NO [Tosedostat] (300 nM) | 51.1% | 86.5% | 51.8% | 81.5% | 92.8% | 78.1% |
| Cc1[nH]c2ccccc2c1CCNCc1ccc(/C=C/C(=O)NO)cc1 [Panobinostat] (30 nM) | 27.3% | 68.8% | 3.77% | 62.8% | 42.8% | 21.1% |
| O=C(/C=C/c1cccc(S(=O)(=O)Nc2ccccc2)c1)NO [Belinostat] (300 nM) | 59.2% | 105% | 16.9% | 26.6% | 72.5% | 49.3% |
| COc1cc2ncnc(Nc3ccc(F)c(Cl)c3)c2cc1OCCCN1CCOCC1 [Gefitinib] (300 nM) | 83.8% and 84.4% | 104% and 106% | 98.2% and 83.2% | 64% and 66.2% | 69.8% and 65.9% | 95.6% and 84.7% |
| C=C1C[C@@H]2[C@H](CC[C@]3(C)C(=O)CC[C@@H]23)[C@@]2(C)C=CC(=O)C=C12 [Exemestane] (300 nM) | 81.7% | 97.1% | 90.8% | 78% | 88.5% | 87% |
| CNC(=O)c1cc(Oc2ccc(NC(=O)Nc3ccc(Cl)c(C(F)(F)F)c3)c(F)c2)ccn1 [Regorafenib] (300 nM) | 103% | 100% | 95.6% | 89.8% | 85.3% | 93.6% |
